Values after ≈ are worked out from the molar mass of the structure shown. Like-named read-outs stand apart in the source and are kept apart here.
Legend:
[1] = system: M. tuberculosis H37Ra ATCC 25177 (MTa H37Ra); test: in vitro antimycobacterial MIC, 96-well Middlebrook broth, alamarBlue; type: cell-based, Mycobacterium tuberculosis; conditions: 7-day cultivation, read-out: MIC MTa H37Ra 7-d
Method: In vitro susceptibitity of given mycobacteria to reference drugs isoniazid (INH), ethambutol (EMB), ofloxacin (OFLX) or ciprofloxacin (CPX) was tested as well (Table 6 and Table 7).
A value of a minimum inhibitory concentration (MIC) was the lowest concentration of a tested compound, (i) which inhibited growth of MTv H37Rv, MK 235/80, MK 6509/96 and MA 330/80, respectively; (ii) at which no visible growth of MTa H37Ra, MS, MK DSM as well as MM was observed.
The molecules 1a–p were also in vitro screened against an avirulent M. tuberculosis H37Ra ATCC 25177 (MTa H37Ra), M. kansasii DSM 44162 (MK DSM), M. smegmatis ATCC 700084 (MS) and M. marinum CAMP 5644 (MM), respectively, in the Department of Infectious Diseases and Microbiology (Faculty of Veterinary Medicine, University of Veterinary and Pharmaceutical Sciences in Brno, Czech Republic).
Determination of a minimum inhibitory concentration (MIC) against MTa H37Ra. The mycobacterium was grown on Middlebrook broth (MB; MiddleBrook Pharmaceuticals, Inc., Westlake, TX, USA), supplemented with Oleic-Albumin-Dextrose-Catalase (OADC) supplement (Difco, Lawrence, KS, USA) and salicylate-derived mycobactin J (2 μg/mL; Allied Monitor Inc., Fayette, MO, USA), an iron-binding siderophore.
At log phase growth, a culture sample (10 mL) was centrifuged at 15,000 rpm/20 min using a bench top centrifuge MPW-65R (MPW Med Instruments, Warsaw, Poland). Following removal of the supernatant, a pellet was washed in fresh liquid Middlebrook 7H9GC broth (MiddleBrook Pharmaceuticals, Inc.) and re-suspended in a fresh OADC-supplemented MB (10 mL).
Turbidity was adjusted to match the McFarland standard No. 1 [87] containing approximately 3 × 10^8 Colony Forming Units (CFU) with MB broth. Further 1:20 dilution of the culture was performed in MB broth.
Susceptibility of MTa H37Ra was investigated in a 96-well plate format. In the experiments, sterile deionized water (300 µL) was added to all outer-perimeter wells of the plates to minimize evaporation of the medium in test wells during incubation. Each evaluated compound (100 µL) was incubated with MTa H37Ra (100 µL). Dilutions of each compound were prepared in triplicate and final concentrations varied from 1000 μg/mL to 8 μg/mL. All tested molecules were dissolved in DMSO (Sigma-Aldrich, Irvine, UK), and subsequent dilutions were made in supplemented MB broth. The plates were sealed with parafilm and incubated at 37 °C for 7 days.
Following incubation, 10% addition a water-soluble dye, the alamarBlue reagent (AbD Serotec, Kidlington, UK) was mixed into each well. This resaurin-based reagent served as an oxidation-reduction indicator of metabolic function and cellular health in cell viability bioassays.
Absorbance readings at 570 nm and 600 nm were taken, initially for background subtraction and after 24h re-incubation. The subtraction is necessary for strongly colored compounds, where the color may interfere with the interpretation of any color change. For non-interfering compounds, a blue color in a well was interpreted as absence of growth and pink color was scored as growth.
The minimum inhibitory concentration (MIC) was defined as the lowest concentration of a compound, at which no visible bacterial growth was observed. In other words, the MIC was the lowest concentration that prevented visual color change from blue to pink.

[2] = electronic properties, UV/Vis spectrophotometry of methanolic solutions; type: physicochemical; conditions: methanolic solution c = 8.0 × 10^−5 M; for log ε2 (Ch-T): charge-transfer maximum λ2 (Ch-T) = 236–238 nm; for log ε1: λ1 = 208–210 nm; for log ε3: λ3 = 278–280 nm
Description: Electronic properties of the molecules 1a–p (Table 1) were characterized by logarithms of molar absorption coefficients (log ε) of their methanolic solutions (c = 8.0 × 10^−5 M) investigated in the UV/Vis region of an electromagnetic spectrum.
Positions of these absorption bands in the spectrum were typical for derivatives of (substituted) phenylcarbamic acid and the bands were assigned as first local excitation (λ3), charge-transfer (λ2 (Ch-T)) and second local excitation (λ1) absorption maxima, respectively. The λ1 and λ2 (Ch-T) maxima of 2-alkoxy substituted compounds 1a–d and 1i–l were slightly lower compared to those of their 3-alkoxy substituted positional isomers 1e–h and 1m–p (Table 1), respectively.
The UV/Vis spectra of methanolic solutions of analyzed compounds 1a–p (c = 8.0 × 10^−5 M) were observed on the 8452A Diode Array spectrophotometer HP-8452A (Hewlett-Packard, Palo Alto, CA, USA) at 21 °C. Methanol for UV-spectroscopy (Merck, Darmstadt, Germany) was used for preparation of these solutions. Results of the UV/Vis analyses were collected and stored digitally using the ChemStation controller software (Agilent Technologies, Waldbronn, Germany). The HP-8452A apparatus measured a complete range of compounds’ spectrum from 190 nm to 820 nm.
The log ε values for presently observed absorption maxima were calculated following the Lambert-Beer’s law, which was discussed in [35], for example, and expressed by Equation (16):A = ε × c × l(16) where the A parameter represented absorbance of a compound’s solution, the ε descriptor was a molar absorption coefficient (in L/mol/cm units) and l was path length (in cm units).

[3] = Mycobacterium tuberculosis, 168 h

Compound | MIC [1, 3] | log ε2 (Ch-T) [2] | log ε1 [2] | log ε3 [2] | MIC [1]
CCCCCCOc1ccccc1NC(=O)OC(CN(CCC)CCC)CN1CCCCCC1 (stereo not shown) [1k] | 195 µM (≈ 92.8 µg/mL) | 4.10 | 4.42 | 3.57 | –
CCCCCOc1cccc(NC(=O)OC(CN(CCC)CCC)CN2CCCCCC2)c1.Cl.Cl (stereo not shown) [1n, 1-[2-[({[3-(pentyloxy)phenyl]amino}carbonyl)oxy]-3-(di-propylammonio)propyl]azepanium dichloride] | 7.5 µM | 4.18 | 4.56 | 3.52 | –
CCCCCOc1cccc(NC(=O)OC(CN(CCC)CCC)CN2CCCC2)c1.Cl.Cl (stereo not shown) [1f, 1-[2-[({[3-(pentyloxy)phenyl]amino}carbonyl)oxy]-3-(dipropylammonio)propyl]-pyrrolidinium dichloride] | < 3.9 µM | 4.27 | 4.55 | 3.62 | –
CCCCOc1ccccc1NC(=O)OC(CN(CCC)CCC)CN1CCCCCC1 (stereo not shown) [1i] | 203 µM (≈ 90.9 µg/mL) | 4.08 | 4.44 | 3.57 | –
CCCCOc1cccc(NC(=O)OC(CN(CCC)CCC)CN2CCCC2)c1 (stereo not shown) [1e] | 8.1 µM (≈ 3.4 µg/mL) | 4.24 | 4.65 | 3.59 | –
CCCCCCOc1cccc(NC(=O)OC(CN(CCC)CCC)CN2CCCCCC2)c1.Cl.Cl (stereo not shown) [1o, 1-[2-[({[3-(hexyloxy)phenyl]amino}-carbonyl)oxy]-3-(dipropylammonio)propyl]azepanium dichloride] | 7.3 µM | 4.01 | 4.52 | 3.37 | –
CCCCCCCOc1ccccc1NC(=O)OC(CN(CCC)CCC)CN1CCCC1.Cl.Cl (stereo not shown) [1d, 1-[2-[({[2-(heptyl-oxy)phenyl]amino}carbonyl)oxy]-3-(dipropylammonio)propyl]pyrrolidinium dichloride] | 12.5 µM | 4.08 | 4.43 | 3.55 | –
CCCCCOc1ccccc1NC(=O)OC(CN(CCC)CCC)CN1CCCCCC1.O=C(O)C(=O)O (stereo not shown) [1j, 1-[2-[({[2-(Pentyloxy)phenyl]amino}carbonyl)oxy]-3-(dipropylammonio)propyl]-azepanium oxalate] | 199 µM | 4.22 | 4.54 | 3.71 | –
CCCCCCOc1ccccc1NC(=O)OC(CN(CCC)CCC)CN1CCCC1 (stereo not shown) [1c] | 25 µM (≈ 11.2 µg/mL) | 4.52 | 4.58 | 3.49 | –
CCCCCCCOc1cccc(NC(=O)OC(CN(CCC)CCC)CN2CCCC2)c1.Cl.Cl (stereo not shown) [1h, 1-[2-[({[3-(heptyloxy)phenyl]amino}carbonyl)oxy]-3-(dipropylammonio)propyl]pyrrolidinium dichloride] | < 3.7 µM | 4.27 | 4.66 | 3.63 | –
CCCCCOc1ccccc1NC(=O)OC(CN(CCC)CCC)CN1CCCC1 (stereo not shown) [1b] | 52 µM (≈ 22.5 µg/mL) | 4.05 | 4.39 | 3.51 | –
CCCCCCCOc1cccc(NC(=O)OC(CN(CCC)CCC)CN2CCCCCC2)c1.O=C(O)C(=O)O (stereo not shown) [1l, 1-[2-[({[3-(hept-yloxy)phenyl]amino}carbonyl)oxy]-3-(dipropylammonio)propyl]azepanium oxalate] | – | 4.14 | 4.44 | 3.59 | 96 µM
CCCCOc1cccc(NC(=O)OC(CN(CCC)CCC)CN2CCCCCC2)c1 (stereo not shown) [1m] | 15.4 µM (≈ 6.89 µg/mL) | 4.09 | 4.52 | 3.44 | –
CCCCCCOc1cccc(NC(=O)OC(CN(CCC)CCC)CN2CCCC2)c1 (stereo not shown) [1g] | < 3.8 µM | 4.13 | 4.54 | 3.48 | –
CCCCOc1ccccc1NC(=O)OC(CN(CCC)CCC)CN1CCCC1 (stereo not shown) [1a] | 213 µM (≈ 89.4 µg/mL) | 4.19 | 4.51 | 3.63 | –
CCCCCCCOc1cccc(NC(=O)OC(CN(CCC)CCC)CN2CCCCCC2)c1.Cl.Cl (stereo not shown) [1p, 1-[2-[({[3-(heptyloxy)phenyl]amino}carbonyl)-oxy]-3-(dipropylammonio)propyl]azepanium dichloride] | – | 4.20 | 4.65 | 3.56 | 7.1 µM

From paper PMC6222509, “Dibasic Derivatives of Phenylcarbamic Acid against Mycobacterial Strains: Old Drugs and New Tricks?” (Molecules : A Journal of Synthetic Chemistry and Natural …, 2018)
